Laboratory results reported in ChEMBL document CHEMBL1201862, “PubChem BioAssay data set” (2004).
Activity calls are given as the source filed them.

How the values were obtained:
Prothrombin = Prothrombin (Homo sapiens, UniProt P00734); assay: Thrombin 1536 HTS Dose Response Confirmation. [Related pubchem assays: 1046 (Thrombin 1536 HTS; hits were confirmed in this assay)]; format: functional
[1] = M. tuberculosis H37Rv growth inhibitors, H37Rv strain (AID 1626); format: functional
[2] = biological target: Photoreceptor-specific nuclear receptor (Homo sapiens, UniProt Q9Y5X4); format: functional;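 further: potency for compounds that break the NR2E3 corepressor complex and count as activators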
[3] = biological target: Peroxisome proliferator-activated receptor gamma/Nuclear receptor corepressor 2 (Homo sapiens, UniProt P37231+Q9Y618); format: functional
14-3-3 protein gamma = biological target: T1, 14-3-3 protein gamma (Homo sapiens, UniProt P61981); assay: modulators of 14-3-3 gamma client binding – dose response (AID 711); format: functional
T1 sequence (P61981 whole entry): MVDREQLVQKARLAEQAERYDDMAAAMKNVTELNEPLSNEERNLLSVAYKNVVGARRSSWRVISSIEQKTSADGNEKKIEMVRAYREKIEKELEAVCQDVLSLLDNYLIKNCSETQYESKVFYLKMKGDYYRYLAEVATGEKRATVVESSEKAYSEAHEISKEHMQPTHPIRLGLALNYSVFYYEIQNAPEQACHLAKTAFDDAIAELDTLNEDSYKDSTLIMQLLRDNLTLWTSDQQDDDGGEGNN

Bcl-2-like protein 10 = biological target: T2, Bcl-2-like protein 10 (Homo sapiens, UniProt Q9HD36); assay: displacers of TR3 peptide from Bcl-B, primary screen, selectivity assay for Bfl-1 inhibitor project, biochemical, fluorescence polarization, FITC-TR3 peptide (AID 748);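 further: fluorescence polarization from a fluorescein-labelled TR3 peptide binding purified Bcl-B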
T2 sequence (Q9HD36 whole entry): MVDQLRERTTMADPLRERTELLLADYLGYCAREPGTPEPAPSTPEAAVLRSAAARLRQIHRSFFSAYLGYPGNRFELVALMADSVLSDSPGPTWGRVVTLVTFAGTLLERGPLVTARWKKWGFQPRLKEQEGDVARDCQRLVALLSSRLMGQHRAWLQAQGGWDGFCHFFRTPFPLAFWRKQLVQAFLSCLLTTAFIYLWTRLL

[4] = A cytotoxicity screen of small molecule inhibitors of the PhoP region in Salmonella typhi identified in the primary screen. [Related pubchem assays: 1850, 1864, 1985 ]; format: functional
[5] = biological target: Induced myeloid leukemia cell differentiation protein Mcl-1 (Homo sapiens, UniProt Q07820); format: functional
[6] = biological target: Peroxisome proliferator-activated receptor gamma/Nuclear receptor coactivator 1 (Homo sapiens, UniProt P37231); assay: TR-FRET dose response biochemical High Throughput Screening assay for agonists of the steroid receptor coactivator 1 (SRC-1) recruitment by the peroxisome proliferator-activated receptor gamma (PPAR gamma): non-selective agonists. [Related pubchem assays (depositor defined):AID1300, AID1808, AID504735, AID631]; format: protein assay
[7] = biological target: Peroxisome proliferator-activated receptor gamma/Nuclear receptor coactivator 2 (Homo sapiens, UniProt P37231); assay: (§1) TR-FRET dose response biochemical High Throughput Screening assay for agonists of the steroid receptor coactivator 2 (SRC-2) recruitment by the peroxisome proliferator-activated receptor gamma (PPAR gamma): non-selective agonists. [Related pubchem assays: 1297, 1032 ]; format: functional
[8] = biological target: Peroxisome proliferator-activated receptor gamma/Nuclear receptor coactivator 3 (Homo sapiens, UniProt P37231); assay: as §1, with “3 (SRC-3)” for “2 (SRC-2)”, “1301 (Confirmation screen.), 1048 (Primary screen.)]” for “1297, 1032 ]”; format: functional
H4 = assay: Luminescence Cell-Based Dose Response HTS to Identify Activators of 5'UTR Stem-Loop Driven Prion Protein mRNA Translation in H4 Neuroglioblastoma Cells. [Related pubchem assays: 1829 (Project Summary), 1814 (Primary HTS)]; format: functional; details: Homo sapiens
[9] = Luminescence Cell-Based Dose Confirmation HTS to Identify Activators of 5'UTR Stem-Loop Driven Alpha-Synuclein mRNA Translation in H4 Neuroglioblastoma Cells. [Related pubchem assays: 1829 (Project Summary), 1814 (Primary HTS)]; format: functional
[10] = Luminescence Cell-Based Dose Response HTS to Identify Activators of Luciferase Translation or Activity in H4 […] Cells. [Related pubchem assays: 1829 (Project Summary), 1814 (Primary HTS)]; format: functional
[11] = biological target: Polyadenylate-binding protein 1 (Homo sapiens, UniProt P11940); assay: PABP poly(A) RNA binding inhibitors, primary screen, biochemical, fluorescence polarization, uHTS (AID 2014)
[12] = biological target: Eukaryotic translation initiation factor 4H (Homo sapiens, UniProt Q15056); assay: human eIF4H binding inhibitors, primary screen, translation initiation inhibitor project, biochemical, uHTS, fluorescence polarization (AID 2012)
Estrogen receptor = biological target: T3, Estrogen receptor (Homo sapiens, UniProt P03372);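 further: potency for inhibiting coactivator peptide recruitment to the receptor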
T3 sequence (P03372 whole entry): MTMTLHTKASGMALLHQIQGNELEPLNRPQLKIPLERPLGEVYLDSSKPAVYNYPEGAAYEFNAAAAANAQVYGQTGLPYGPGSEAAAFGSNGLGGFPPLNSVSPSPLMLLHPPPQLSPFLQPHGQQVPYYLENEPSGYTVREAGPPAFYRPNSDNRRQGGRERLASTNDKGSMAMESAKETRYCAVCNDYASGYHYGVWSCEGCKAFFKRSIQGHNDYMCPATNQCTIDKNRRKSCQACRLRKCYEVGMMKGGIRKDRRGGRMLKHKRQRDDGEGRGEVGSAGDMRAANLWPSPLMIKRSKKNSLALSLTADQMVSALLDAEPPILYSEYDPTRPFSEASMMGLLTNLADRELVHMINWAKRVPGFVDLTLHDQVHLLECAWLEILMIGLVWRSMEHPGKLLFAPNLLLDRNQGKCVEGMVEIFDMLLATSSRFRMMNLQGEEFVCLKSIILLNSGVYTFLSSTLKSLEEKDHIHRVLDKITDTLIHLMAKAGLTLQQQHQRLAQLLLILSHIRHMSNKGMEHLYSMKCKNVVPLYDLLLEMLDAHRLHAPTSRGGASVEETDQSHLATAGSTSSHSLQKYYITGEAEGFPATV

cells = format: functional
[13] = microbe, parasite or virus in culture; format: functional; details: Mycobacterium tuberculosis
[14] = Vero E6 cell cytotoxicity, dose response, cytotoxicity control for non-replicating M. tuberculosis project, secondary assay (AID 492998); format: functional, VeroE6; details: Vero C1008
[15] = THP-1 cell cytotoxicity, dose response, cytotoxicity control for non-replicating M. tuberculosis project (AID 489025); format: functional
Beta-galactosidase = Beta-galactosidase (Escherichia coli, UniProt Q8VNN2); assay: beta-galactosidase enzyme inhibitors and activators, dose response, artefact control for CCR6 antagonist project, biochemical, E. coli enzyme, set 3 (AID 504712); format: functional
[16] = biological target: Heat shock protein HSP 90-alpha (Homo sapiens, UniProt P07900); format: functional, organism-based
Phosphomannomutase 2 = biological target: T4, Phosphomannomutase 2 (Homo sapiens, UniProt O15305); assay: Counter screen SAR assay for PMM2 inhibitors via a fluorescence intensity assay. [Related pubchem assays (depositor defined):AID1545, AID1574]
T4 sequence (O15305 whole entry): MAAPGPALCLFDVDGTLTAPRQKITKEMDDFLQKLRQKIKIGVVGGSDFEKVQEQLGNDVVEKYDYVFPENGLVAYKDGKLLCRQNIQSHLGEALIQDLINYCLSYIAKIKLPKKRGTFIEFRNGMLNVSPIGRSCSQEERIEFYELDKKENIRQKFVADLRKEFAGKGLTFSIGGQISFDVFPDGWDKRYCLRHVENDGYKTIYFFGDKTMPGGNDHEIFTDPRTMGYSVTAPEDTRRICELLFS

[17] = biological target: T5, Mannose-6-phosphate isomerase (Homo sapiens, UniProt P34949); assay: inhibitors of human PMI, primary screen, biochemical, fluorescence intensity, coupled assay (AID 1209)
T5 sequence (P34949 whole entry): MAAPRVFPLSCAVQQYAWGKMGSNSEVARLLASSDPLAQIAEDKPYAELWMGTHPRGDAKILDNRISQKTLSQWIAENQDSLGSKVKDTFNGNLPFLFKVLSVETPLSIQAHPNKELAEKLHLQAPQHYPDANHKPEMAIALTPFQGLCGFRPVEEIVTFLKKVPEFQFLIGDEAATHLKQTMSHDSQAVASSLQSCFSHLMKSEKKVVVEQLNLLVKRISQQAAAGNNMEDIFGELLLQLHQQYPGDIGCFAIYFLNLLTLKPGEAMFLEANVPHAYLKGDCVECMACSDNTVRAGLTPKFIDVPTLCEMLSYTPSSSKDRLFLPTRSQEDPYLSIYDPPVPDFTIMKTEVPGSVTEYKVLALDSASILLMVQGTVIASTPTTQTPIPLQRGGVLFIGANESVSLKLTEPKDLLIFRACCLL

Sequence of Peroxisome proliferator-activated receptor gamma/Nuclear receptor corepressor 2 (P37231 whole entry): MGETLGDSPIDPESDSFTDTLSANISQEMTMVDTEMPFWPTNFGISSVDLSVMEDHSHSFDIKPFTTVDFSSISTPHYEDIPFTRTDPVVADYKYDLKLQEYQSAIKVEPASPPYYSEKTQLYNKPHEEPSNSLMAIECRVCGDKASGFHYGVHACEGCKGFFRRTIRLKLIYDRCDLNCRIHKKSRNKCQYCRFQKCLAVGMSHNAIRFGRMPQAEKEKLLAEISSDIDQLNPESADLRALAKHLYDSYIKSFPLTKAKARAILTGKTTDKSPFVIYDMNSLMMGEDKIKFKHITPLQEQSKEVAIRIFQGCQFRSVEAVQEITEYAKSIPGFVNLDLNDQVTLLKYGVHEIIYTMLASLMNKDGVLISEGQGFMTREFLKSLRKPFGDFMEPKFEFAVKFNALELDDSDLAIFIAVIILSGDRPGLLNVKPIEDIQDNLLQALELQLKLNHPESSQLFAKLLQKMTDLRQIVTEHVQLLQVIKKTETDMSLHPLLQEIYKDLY
Sequence of Peroxisome proliferator-activated receptor gamma/Nuclear receptor corepressor 2 (Q9Y618 whole entry): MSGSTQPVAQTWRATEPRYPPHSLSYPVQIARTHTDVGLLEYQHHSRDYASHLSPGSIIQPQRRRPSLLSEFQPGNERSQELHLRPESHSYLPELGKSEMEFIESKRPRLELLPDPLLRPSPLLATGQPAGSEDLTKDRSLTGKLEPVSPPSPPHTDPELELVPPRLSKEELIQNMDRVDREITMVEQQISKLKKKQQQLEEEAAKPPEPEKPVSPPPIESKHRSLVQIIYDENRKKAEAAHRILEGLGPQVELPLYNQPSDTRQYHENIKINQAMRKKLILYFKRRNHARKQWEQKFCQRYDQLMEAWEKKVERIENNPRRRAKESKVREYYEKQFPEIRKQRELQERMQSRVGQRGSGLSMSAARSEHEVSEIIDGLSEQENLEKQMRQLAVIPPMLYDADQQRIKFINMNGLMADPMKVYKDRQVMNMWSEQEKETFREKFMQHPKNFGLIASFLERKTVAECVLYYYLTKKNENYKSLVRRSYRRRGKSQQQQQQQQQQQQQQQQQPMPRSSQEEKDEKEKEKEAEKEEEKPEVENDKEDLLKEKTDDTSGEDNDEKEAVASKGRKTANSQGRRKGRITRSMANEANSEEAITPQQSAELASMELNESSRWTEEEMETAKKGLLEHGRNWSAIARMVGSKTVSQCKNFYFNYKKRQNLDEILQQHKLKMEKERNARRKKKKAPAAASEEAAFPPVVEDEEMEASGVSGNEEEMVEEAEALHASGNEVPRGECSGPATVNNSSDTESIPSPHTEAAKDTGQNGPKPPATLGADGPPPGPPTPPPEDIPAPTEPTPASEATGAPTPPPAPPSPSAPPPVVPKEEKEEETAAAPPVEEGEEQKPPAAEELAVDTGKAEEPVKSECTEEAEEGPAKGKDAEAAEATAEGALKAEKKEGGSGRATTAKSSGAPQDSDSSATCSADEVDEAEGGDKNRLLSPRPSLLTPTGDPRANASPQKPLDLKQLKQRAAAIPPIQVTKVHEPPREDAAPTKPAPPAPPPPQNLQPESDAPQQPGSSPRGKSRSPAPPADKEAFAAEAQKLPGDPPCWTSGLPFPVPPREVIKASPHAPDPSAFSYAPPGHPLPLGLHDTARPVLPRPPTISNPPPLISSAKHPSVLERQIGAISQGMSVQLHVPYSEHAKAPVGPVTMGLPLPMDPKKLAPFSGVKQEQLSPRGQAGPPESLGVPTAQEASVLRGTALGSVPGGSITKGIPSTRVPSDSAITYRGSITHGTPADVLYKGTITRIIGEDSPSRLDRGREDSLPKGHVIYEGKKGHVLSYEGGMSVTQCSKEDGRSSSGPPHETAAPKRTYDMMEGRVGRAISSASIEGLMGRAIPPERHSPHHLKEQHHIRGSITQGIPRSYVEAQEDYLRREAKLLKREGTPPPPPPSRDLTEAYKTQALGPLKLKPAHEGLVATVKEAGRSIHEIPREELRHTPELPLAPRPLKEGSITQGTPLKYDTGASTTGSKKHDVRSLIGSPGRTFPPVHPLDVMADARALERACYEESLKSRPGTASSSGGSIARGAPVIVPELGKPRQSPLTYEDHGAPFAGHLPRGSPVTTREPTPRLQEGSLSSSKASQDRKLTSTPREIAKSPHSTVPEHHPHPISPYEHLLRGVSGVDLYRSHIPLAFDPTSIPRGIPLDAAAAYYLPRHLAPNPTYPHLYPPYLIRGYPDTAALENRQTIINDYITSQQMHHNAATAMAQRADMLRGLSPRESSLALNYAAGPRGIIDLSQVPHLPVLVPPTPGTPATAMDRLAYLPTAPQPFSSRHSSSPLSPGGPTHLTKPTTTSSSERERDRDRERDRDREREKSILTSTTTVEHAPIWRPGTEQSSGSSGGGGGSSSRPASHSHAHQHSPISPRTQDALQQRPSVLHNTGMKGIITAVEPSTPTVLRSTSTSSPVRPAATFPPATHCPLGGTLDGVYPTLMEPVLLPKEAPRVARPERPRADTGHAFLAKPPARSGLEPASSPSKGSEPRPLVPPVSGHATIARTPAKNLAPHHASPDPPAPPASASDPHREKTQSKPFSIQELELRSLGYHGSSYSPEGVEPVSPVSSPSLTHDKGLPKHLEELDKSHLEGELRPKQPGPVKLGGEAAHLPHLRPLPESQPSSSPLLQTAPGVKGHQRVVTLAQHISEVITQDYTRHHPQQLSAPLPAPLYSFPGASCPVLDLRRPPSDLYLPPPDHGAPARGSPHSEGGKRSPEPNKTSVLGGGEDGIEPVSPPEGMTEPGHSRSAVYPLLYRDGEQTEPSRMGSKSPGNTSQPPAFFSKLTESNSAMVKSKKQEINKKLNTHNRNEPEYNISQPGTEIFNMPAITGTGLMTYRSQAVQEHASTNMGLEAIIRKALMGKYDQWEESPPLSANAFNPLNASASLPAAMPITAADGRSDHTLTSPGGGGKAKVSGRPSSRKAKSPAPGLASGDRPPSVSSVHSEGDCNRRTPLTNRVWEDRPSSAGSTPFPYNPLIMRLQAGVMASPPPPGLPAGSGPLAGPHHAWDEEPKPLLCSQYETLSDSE
Sequence of Photoreceptor-specific nuclear receptor (Q9Y5X4 whole entry): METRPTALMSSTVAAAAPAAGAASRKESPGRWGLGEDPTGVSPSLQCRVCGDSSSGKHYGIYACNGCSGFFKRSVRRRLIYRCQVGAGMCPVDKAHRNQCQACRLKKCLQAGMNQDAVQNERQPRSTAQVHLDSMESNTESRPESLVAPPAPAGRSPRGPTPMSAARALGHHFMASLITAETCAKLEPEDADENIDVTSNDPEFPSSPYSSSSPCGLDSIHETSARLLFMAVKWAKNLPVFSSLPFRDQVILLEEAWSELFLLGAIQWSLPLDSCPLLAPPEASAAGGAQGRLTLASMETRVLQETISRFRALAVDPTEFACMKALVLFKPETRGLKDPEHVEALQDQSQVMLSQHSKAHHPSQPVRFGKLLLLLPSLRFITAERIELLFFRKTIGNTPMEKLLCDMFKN
Sequence of Polyadenylate-binding protein 1 (P11940 whole entry): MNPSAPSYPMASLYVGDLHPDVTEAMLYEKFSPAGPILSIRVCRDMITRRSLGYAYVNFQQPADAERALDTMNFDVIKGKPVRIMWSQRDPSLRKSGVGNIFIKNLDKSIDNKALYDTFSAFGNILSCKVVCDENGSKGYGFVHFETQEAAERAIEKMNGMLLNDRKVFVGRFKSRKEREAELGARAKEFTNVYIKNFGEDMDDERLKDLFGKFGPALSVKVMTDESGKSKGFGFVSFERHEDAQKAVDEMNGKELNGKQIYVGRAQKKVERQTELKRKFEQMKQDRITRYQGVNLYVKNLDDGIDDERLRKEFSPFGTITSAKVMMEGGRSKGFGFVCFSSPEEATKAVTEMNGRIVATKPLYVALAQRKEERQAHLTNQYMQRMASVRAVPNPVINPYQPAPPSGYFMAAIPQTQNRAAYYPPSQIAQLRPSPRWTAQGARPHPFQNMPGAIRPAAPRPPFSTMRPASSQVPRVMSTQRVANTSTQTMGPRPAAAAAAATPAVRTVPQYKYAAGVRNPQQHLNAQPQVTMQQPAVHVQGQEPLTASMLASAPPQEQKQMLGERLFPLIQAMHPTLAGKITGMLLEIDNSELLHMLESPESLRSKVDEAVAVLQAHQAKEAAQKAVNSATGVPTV
Sequence of Induced myeloid leukemia cell differentiation protein Mcl-1 (Q07820 whole entry): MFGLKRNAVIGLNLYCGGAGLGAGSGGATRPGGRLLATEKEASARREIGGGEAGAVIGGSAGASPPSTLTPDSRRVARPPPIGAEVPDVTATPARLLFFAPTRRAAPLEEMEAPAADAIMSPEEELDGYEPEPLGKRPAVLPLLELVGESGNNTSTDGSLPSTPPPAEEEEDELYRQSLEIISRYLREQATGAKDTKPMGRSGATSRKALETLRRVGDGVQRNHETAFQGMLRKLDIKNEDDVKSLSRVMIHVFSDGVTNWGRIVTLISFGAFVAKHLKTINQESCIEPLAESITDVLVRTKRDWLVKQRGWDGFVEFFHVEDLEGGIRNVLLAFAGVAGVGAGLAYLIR

CC(=O)n1nc(-c2ccc(C)cc2)nc1NCc1ccco1
IC50 (Prothrombin): 1.82 µM (active)

COc1ccc(NC(=O)CCc2nc(-c3ccccc3F)no2)cc1
IC50 [1]: > 100 µM (active)

COc1ccc(C(=O)NNC(=O)C(Cc2ccc(O)cc2)NC(=O)c2ccccc2NC(=O)c2ccc(OC)cc2)cc1 (stereo not drawn)
IC50 [2]: > 39.8 µM (not active)
IC50 [3]: > 39.8 µM (not active)

COC(=O)Cn1cc(C(=O)c2cccs2)c2ccccc21
IC50 (Prothrombin): > 50 µM (inconclusive)

Cc1ccc(C(=O)NCC(C)(C)O)cc1
IC50 (14-3-3 protein gamma): > 50 µM (not active)

Cc1cc(C)c(NC(=O)CN(c2ccccc2)S(=O)(=O)N(C)C)c(C)c1
IC50 (Bcl-2-like protein 10): 69.2 µM (inactive)

Cc1cc(NS(=O)(=O)c2ccc(Nc3nc(-c4sc(NC(=O)c5ccccc5)nc4C)cs3)cc2)no1
EC50 [4]: > 50 µM (active)
IC50 [5]: 2.46 µM (active)

CCOc1cc(C2NC(=O)NC(O)(C(F)(F)F)C2C(=O)c2ccc(Cl)cc2)ccc1O (stereo not drawn)
IC50 (Prothrombin): > 50 µM (not active)

CN(C)CCCN1C(=O)C(O)=C(C(=O)c2cc3ccccc3o2)C1c1ccccc1 (stereo not drawn)
EC50 [6]: 6.07 µM (active)
EC50 [7]: 4.26 µM (active)
EC50 [8]: > 79.4 µM (not active)
IC50 [2]: > 39.8 µM (not active)
IC50 [3]: 5.04 µM (active)

Nc1ccccc1Nc1cc(-c2ccccc2)[nH]n1
EC50 (H4): 12.1 µM (active)
IC50 [1]: > 100 µM (active)
EC50 [9]: 14.1 µM (active)
EC50 [10]: 19.8 µM (active)

O=C(NCc1ccco1)C1c2ccccc2Oc2ccccc21
IC50 [11]: 71.3 µM (active)
IC50 [12]: 15.7 µM (active)

Cc1cccc2cc(C(c3nnnn3C(C)(C)C)N(Cc3ccco3)CC3CCCO3)c(=O)[nH]c12 (stereo not drawn)
IC50 (Estrogen receptor): 13.3 µM (active)
IC50 (Bcl-2-like protein 10): > 100 µM (inactive)

Cc1ccc(-n2c(=S)[nH]c3c(oc4ccccc43)c2=O)cc1C
IC50 [2]: 4.11 µM (active)
IC50 [3]: 7.61 µM (active)

Cc1cc(CC(C)C)n(-c2nc3ccccc3c(=O)n2OCC(N)=O)n1
IC50 (cells): 8.85 µM (active)
CC50 [13]: > 40 µM (active)
CC50 [14]: > 20 µM (active)
CC50 [15]: > 40 µM (active)

CCOc1ccc(-n2cc(C(=O)N3CCN(C)CC3)c3cc(OC)c(OC)cc3c2=O)cc1
IC50 (14-3-3 protein gamma): > 50 µM (not active)

COc1ccc(NC(=O)CSC2=NCCN2)cc1
IC50 [1]: > 100 µM (active)

COc1cccc2cc(-c3cc(=O)oc4ccc(O)cc34)oc12
IC50 [11]: > 100 µM (inactive)
IC50 [12]: 43.1 µM (active)

Cc1cc(C)cc(N2C(=O)C=CC2=O)c1
IC50 (Beta-galactosidase): > 66.6 µM (inactive)
AC50 [16]: 0.499 µM (active)

Cc1ccc(C)c(-n2[nH]c3ccccc3c2=O)c1
IC50 (Phosphomannomutase 2): > 100 µM (inactive)

C(=N/Nc1nccs1)/c1cccnc1
EC50 [4]: > 50 µM (active)

Cn1c(=O)[nH]c(=O)c2c1nc(Br)n2C/C=N/Nc1ccccc1
IC50 [17]: > 50 µM (not active)
